{
  "source": "the NIST ThermoML archive (doi:10.1021/je9006585)",
  "details": "Crystal; visual observation",
  "note": "Numbers after ± are expanded uncertainties.",
  "data": [
    {"smiles": "C[n+]1ccn(CCCn2cc[n+](C)c2)c1.F[P-](F)(F)(F)(F)F.F[P-](F)(F)(F)(F)F", "values": [
      {"measurement": "Normal melting temperature", "value": "142.2 ± 1.5", "unit": "°C"}
    ]}
  ]
}
